Experimental data: PubChem BioAssay (NCI)
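The concentration for 50% growth inhibition is given as GI50. Definition used: TGI = concentration required for complete inhibition of growth.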

Assays:
Assay in all cases: inhibition of tumour cell growth, NCI panel, 384-well format
786-0 renal = test system: 786-0 renal
HOP-62 NSCLC = test system: HOP-62 NSCLC
HCT-116 colon = test system: HCT-116 colon
IGROV1 ovarian = test system: IGROV1 ovarian
RXF 393 renal = test system: RXF 393 renal
NCI-H226 lung = test system: NCI-H226 lung
SNB-75 CNS = test system: SNB-75 CNS
CAKI-1 renal = test system: CAKI-1 renal
OVCAR-5 ovarian = test system: OVCAR-5 ovarian
MOLT-4 leukemia = test system: MOLT-4 leukemia
BT-549 breast = test system: BT-549 breast
SF-268 CNS = test system: SF-268 CNS
UACC-62 melanoma = test system: UACC-62 melanoma
MDA-MB-231 breast = test system: MDA-MB-231 breast
OVCAR-8 ovarian = test system: OVCAR-8 ovarian
NCI/ADR-RES ovarian = test system: NCI/ADR-RES ovarian
KM12 colon = test system: KM12 colon
A498 renal = test system: A498 renal
U251 glioblastoma = test system: U251 glioblastoma
MALME-3M melanoma = test system: MALME-3M melanoma
EKVX NSCLC = test system: EKVX NSCLC
HS 578T breast = test system: HS 578T breast
HCT-15 colon = test system: HCT-15 colon
NCI-H23 lung = test system: NCI-H23 lung
OVCAR-3 ovarian = test system: OVCAR-3 ovarian
NCI-H322M lung = test system: NCI-H322M lung
CCRF-CEM leukemia = test system: CCRF-CEM leukemia
K-562 leukemia = test system: K-562 leukemia
M14 melanoma = test system: M14 melanoma
SR leukemia = test system: SR leukemia
TK-10 renal = test system: TK-10 renal
SF-539 CNS = test system: SF-539 CNS
OVCAR-4 ovarian = test system: OVCAR-4 ovarian
SNB-19 CNS = test system: SNB-19 CNS
SW-620 colon = test system: SW-620 colon
COLO 205 colon = test system: COLO 205 colon
SF-295 CNS = test system: SF-295 CNS
NCI-H460 NSCLC = test system: NCI-H460 NSCLC
SK-MEL-28 melanoma = test system: SK-MEL-28 melanoma
SK-MEL-2 melanoma = test system: SK-MEL-2 melanoma
SK-MEL-5 melanoma = test system: SK-MEL-5 melanoma
MCF7 breast = test system: MCF7 breast
PC-3 prostate = test system: PC-3 prostate
RPMI-8226 leukemia = test system: RPMI-8226 leukemia
NCI-H522 lung = test system: NCI-H522 lung
T-47D breast = test system: T-47D breast
ACHN renal = test system: ACHN renal
A549 NSCLC = test system: A549 NSCLC
HL-60(TB) leukemia = test system: HL-60(TB) leukemia
MDA-MB-468 breast = test system: MDA-MB-468 breast
HCC-2998 colon = test system: HCC-2998 colon
DU-145 prostate = test system: DU-145 prostate
HT29 colon = test system: HT29 colon
SN12C renal = test system: SN12C renal
MDA-MB-435 melanoma = test system: MDA-MB-435 melanoma
UACC-257 melanoma = test system: UACC-257 melanoma
SK-OV-3 ovarian = test system: SK-OV-3 ovarian
HOP-92 NSCLC = test system: HOP-92 NSCLC

With `O=C1CC(c2c[nH]c3ccc(F)cc23)C(=O)N1` (stereo unspecified) the GI50 ([…]-0 renal) was > 100 µM, the TGI (786-0 renal) was > 100 µM and the GI50 (HOP-62 NSCLC) was > 100 µM. The TGI (HOP-62 NSCLC) was > 100 µM, the GI50 (HCT-116 colon) was > 100 µM and the TGI (HCT-116 colon) was > 100 µM. For the same compound, the GI50 (IGROV1 ovarian) was > 100 µM, the TGI (IGROV1 ovarian) was > 100 µM and the GI50 (RXF 393 renal) was > 100 µM. The TGI (RXF 393 renal) was > 100 µM, the GI50 (NCI-H226 lung) was > 100 µM and the TGI (NCI-H226 lung) was > 100 µM. The GI50 (SNB-75 CNS) was > 100 µM, the TGI (SNB-75 CNS) was > 100 µM and the GI50 (CAKI-1 renal) was > 100 µM. For the same compound, the TGI (CAKI-1 renal) was > 100 µM, the GI50 (OVCAR-5 ovarian) was > 100 µM and the TGI (OVCAR-5 ovarian) was > 100 µM. For the same compound, the GI50 (MOLT-4 leukemia) was > 100 µM, the TGI (MOLT-4 leukemia) was > 100 µM and the GI50 (BT-549 breast) was > 100 µM. The TGI (BT-549 breast) was > 100 µM, the GI50 (SF-268 CNS) was > 100 µM and the TGI (SF-268 CNS) was > 100 µM. The GI50 (UACC-62 melanoma) was > 100 µM, the TGI (UACC-62 melanoma) was > 100 µM and the GI50 (MDA-MB-231 breast) was > 100 µM. For the same compound, the TGI (MDA-MB-231 breast) was > 100 µM, the GI50 (OVCAR-8 ovarian) was > 100 µM and the TGI (OVCAR-8 ovarian) was > 100 µM. The GI50 (NCI/ADR-RES ovarian) was > 100 µM, the TGI (NCI/ADR-RES ovarian) was > 100 µM and the GI50 (KM12 colon) was > 100 µM. The TGI (KM12 colon) was > 100 µM, the GI50 (A498 renal) was > 100 µM and the TGI (A498 renal) was > 100 µM. The GI50 (U251 glioblastoma) was > 100 µM, the TGI (U251 glioblastoma) was > 100 µM and the GI50 (MALME-3M melanoma) was > 100 µM. The TGI (MALME-3M melanoma) was > 100 µM, the GI50 (EKVX NSCLC) was > 100 µM and the TGI (EKVX NSCLC) was > 100 µM. For the same compound, the GI50 (HS 578T breast) was > 100 µM, the TGI (HS 578T breast) was > 100 µM and the GI50 (HCT-15 colon) was > 100 µM. The TGI (HCT-15 colon) was > 100 µM, the GI50 (NCI-H23 lung) was > 100 µM and the TGI (NCI-H23 lung) was > 100 µM. For the same compound, the GI50 (OVCAR-3 ovarian) was > 100 µM, the TGI (OVCAR-3 ovarian) was > 100 µM and the GI50 (NCI-H322M lung) was > 100 µM. For the same compound, the TGI (NCI-H322M lung) was > 100 µM, the GI50 (CCRF-CEM leukemia) was > 100 µM and the TGI (CCRF-CEM leukemia) was > 100 µM. The GI50 (K-562 leukemia) was > 100 µM, the TGI (K-562 leukemia) was > 100 µM and the GI50 (M14 melanoma) was > 100 µM. The TGI (M14 melanoma) was > 100 µM, the GI50 (SR leukemia) was > 100 µM and the TGI (SR leukemia) was > 100 µM. For the same compound, the GI50 (TK-10 renal) was > 100 µM, the TGI (TK-10 renal) was > 100 µM and the GI50 (SF-539 CNS) was > 100 µM. For the same compound, the TGI (SF-539 CNS) was > 100 µM, the GI50 (OVCAR-4 ovarian) was > 100 µM and the TGI (OVCAR-4 ovarian) was > 100 µM. For the same compound, the GI50 (SNB-19 CNS) was > 100 µM, the TGI (SNB-19 CNS) was > 100 µM and the GI50 (SW-620 colon) was > 100 µM. For the same compound, the TGI (SW-620 colon) was > 100 µM, the GI50 (COLO 205 colon) was > 100 µM and the TGI (COLO 205 colon) was > 100 µM. For the same compound, the GI50 (SF-295 CNS) was > 100 µM, the TGI (SF-295 CNS) was > 100 µM and the GI50 (NCI-H460 NSCLC) was > 100 µM. For the same compound, the TGI (NCI-H460 NSCLC) was > 100 µM, the GI50 (SK-MEL-28 melanoma) was > 100 µM and the TGI (SK-MEL-28 melanoma) was > 100 µM. For the same compound, the GI50 (SK-MEL-2 melanoma) was > 100 µM, the TGI (SK-MEL-2 melanoma) was > 100 µM and the GI50 (SK-MEL-5 melanoma) was > 100 µM. For the same compound, the TGI (SK-MEL-5 melanoma) was > 100 µM, the GI50 (MCF7 breast) was > 100 µM and the TGI (MCF7 breast) was > 100 µM. The GI50 (PC-3 prostate) was > 100 µM, the TGI (PC-3 prostate) was > 100 µM and the GI50 (RPMI-8226 leukemia) was > 100 µM. The TGI (RPMI-8226 leukemia) was > 100 µM, the GI50 (NCI-H522 lung) was > 100 µM and the TGI (NCI-H522 lung) was > 100 µM. The GI50 (T-47D breast) was > 100 µM, the TGI (T-47D breast) was > 100 µM and the GI50 (ACHN renal) was > 100 µM. For the same compound, the TGI (ACHN renal) was > 100 µM, the GI50 (A549 NSCLC) was > 100 µM and the TGI (A549 NSCLC) was > 100 µM. The GI50 (HL-60(TB) leukemia) was > 100 µM, the TGI (HL-60(TB) leukemia) was > 100 µM and the GI50 (MDA-MB-468 breast) was > 100 µM. The TGI (MDA-MB-468 breast) was > 100 µM, the GI50 (HCC-2998 colon) was > 100 µM and the TGI (HCC-2998 colon) was > 100 µM. For the same compound, the GI50 (DU-145 prostate) was > 100 µM, the TGI (DU-145 prostate) was > 100 µM and the GI50 (HT29 colon) was > 100 µM. For the same compound, the TGI (HT29 colon) was > 100 µM, the GI50 (SN12C renal) was > 100 µM and the TGI (SN12C renal) was > 100 µM. The GI50 (MDA-MB-435 melanoma) was > 100 µM, the TGI (MDA-MB-435 melanoma) was > 100 µM and the GI50 (UACC-257 melanoma) was > 100 µM. The TGI (UACC-257 melanoma) was > 100 µM, the GI50 (SK-OV-3 ovarian) was > 100 µM and the TGI (SK-OV-3 ovarian) was > 100 µM. For the same compound, the GI50 (HOP-92 NSCLC) was > 100 µM and the TGI (HOP-92 NSCLC) was > 100 µM.
